From ChEMBL document CHEMBL4017445, “Development and crystallographic evaluation of histone H3 peptide with N-terminal serine substitution as a potent inhibitor of lysine-specific demethylase 1” (Bioorg Med Chem, 2017) come the findings set out here.

This experiment deals with Lysine-specific histone demethylase 1A (Homo sapiens, UniProt O60341). Description: Inhibition of human LSD1 (172 to 833 residues) assessed as reduction in H2O2 production using H3K4me2 (1 to 20 residues) peptide as substrate preincubated for 10 mins followed by substrate addition measured after 30 mins by peroxidase coupled enzyme assay.

Bounds are passed on as bounds.

For orientation: Ki means the dissociation constant of the complex between target and ligand, obtained from inhibition or displacement. As for `CSCC[C@H](NC(=O)[C@@H](NC(=O)[C@@H](N)CCCNC(=N)N)[C@@H](C)O)C(=O)N[C@@H](CCC(N)=O)C(=O)N[C@H](C(=O)N[C@@H](C)C(=O)N[C@@H](CCCNC(=N)N)C(=O)N[C@@H](CCCCN)C(=O)N[C@@H](CO)C(=O)N[C@H](C(=O)NCC(=O)NCC(=O)N[C@@H](CCCCN)C(=O)N[C@@H](C)C(=O)N1CCC[C@H]1C(=O)N[C@@H](CCCNC(=N)N)C(=O)N[C@@H](CCCCN)C(=O)N[C@@H](CCC(N)=O)C(=O)N[C@@H](CC(C)C)C(N)=O)[C@@H](C)O)[C@@H](C)O`, the Ki was more than 500 µM. Then `CSCC[C@H](NC(=O)[C@@H](NC(=O)[C@H](CCCNC(=N)N)NC(=O)CO)[C@@H](C)O)C(=O)N[C@@H](CCC(N)=O)C(=O)N[C@H](C(=O)N[C@@H](C)C(=O)N[C@@H](CCCNC(=N)N)C(=O)N[C@@H](CCCCN)C(=O)N[C@@H](CO)C(=O)N[C@H](C(=O)NCC(=O)NCC(=O)N[C@@H](CCCCN)C(=O)N[C@@H](C)C(=O)N1CCC[C@H]1C(=O)N[C@@H](CCCNC(=N)N)C(=O)N[C@@H](CCCCN)C(=O)N[C@@H](CCC(N)=O)C(=O)N[C@@H](CC(C)C)C(N)=O)[C@@H](C)O)[C@@H](C)O`, with 170 µM.
